Data from patent US20190328706A1, “COMPOSITIONS COMPRISING AN INTEGRIN INHIBITOR AND AGENTS WHICH INTERACT WITH A CHEMOKINE AND METHODS OF USE THEREOF” (Saint Louis University, priority 2016, published 2019).
Like-named read-outs stand apart in the source and are kept apart here. One block for each compound: values may come before it.

How the values were obtained:
[1] = system: human G2 acute lymphoblastic leukemia (ALL) cells; test: Flow cytometry cell-based assay: inhibition of soluble VCAM-1 binding to G2 ALL cells
Protocol: (§1) Compounds were tested for their ability to inhibit the binding of soluble VCAM-1 to human G2 acute lymphoblastic leukemia (ALL) cells. Briefly, G2 ALL cells are pre-incubated with increasing concentrations (0.001 to 1000 nM) of compounds for 30 minutes. Soluble VCAM/Fc chimera protein (R&D systems) is then added to the mixture and the cells incubated for an additional 30 minutes. Afterwards, cells are washed and VCAM-1 is detected using PE-conjugated secondary mAbs. In each experiment, an aliquot of cells will be stained with isotype control mAbs to serve as a negative control. The percentage of VCAM-1 binding cells was then determined by flow cytometry.
as §1, with “(ALL) cells or 5TGMI myeloma” for “(ALL)”, “ALL or 5TGMI” for “ALL”

murine HSPCs = test: Colony forming cell (CFC/CFU) assay of mobilized peripheral blood, DBA/2 mice; assay type: in vivo; conditions: for amount of CFU-C cells mobilized in combination with Groβt versus inhibitor alone: DBA/2J mice, FIG. 16
Protocol: The VLA-4 inhibitors Examples 1220, 1221, 1224, 1610, and 1611 were prepared in DMSO/10 mM sodium bicarbonate pH 8/saline (1%/49.5%/49.5%) and injected subcutaneously (SC) at a dose of 3 mg/kg.
(§2) Peripheral blood (PB) was drawn from the facial vein without anaesthesia into K/EDTA anti-coagulated tubes (Sarstedt AG & Co, Numbrecht, Germany). Red blood cells were removed from 25 L aliquots of blood using hypotonic lysis (Ammonium-Chloride-Potassium, ACK buffer, 5-10 min at RT) and samples were mixed with 2.5 mL methylcellulose media supplemented with a cocktail of recombinant cytokines (MethoCult 3434; Stem Cell Technologies, Vancouver, BC, Canada). Cultures were plated in duplicate in 35 mm dishes and placed in a humidified chamber with 5% CO2 at 37° C. After 7 d of culture, colonies containing at least 50 cells were counted using an inverted microscope in a blinded fashion.
Recombinant human CXCL2 (Groβt; R&D systems) was reconstituted in sterile Ca^+2/Mg^+2-free phosphate buffered saline (PBS) and injected subcutaneously (SC) at a dose of 2.5 mg/kg. Firategrast (U.S. Patent Application No. 2014/051655) was dissolved in Ca^+2/Mg^+2-free PBS plus 1% ethanol and injected intravenously at a dose of 100 mg/kg. RhG-CSF (Neupogen®, Filgrastim, Amgen, Thousand Oaks, Calif., USA) diluted in PBS was injected i.p. every 12 hrs at a dose of 100 μg/kg for a total of 9 (day 5) doses.
as §2, with “Co, Nimbrecht,” for “Co, Numbrecht,”, “25 μL” for “25 L”
Recombinant human CXCL2 (Groβt; R&D systems) was reconstituted in sterile Ca^+2/Mg^+2-free phosphate buffered saline (PBS) and injected subcutaneously (SC) at a dose of 2.5 mg/kg. Firategrast (published structure: C27H27F2NO6; U.S. Patent Application No. 2014/051655) was dissolved in Ca^+2/Mg^+2-free PBS plus 1% ethanol and injected intravenously at a dose of 100 mg/kg. RhG-CSF (Neupogen®, Filgrastim, Amgen, Thousand Oaks, Calif., USA) diluted in PBS was injected i.p. every 12 hrs at a dose of 100 μg/kg for a total of 9 (day 5) doses.

LSK cells = test: Flow cytometric enumeration of mobilized LSK cells, DBA/2J mice; assay type: in vivo; conditions: for LSK cell mobilization compared with firategrast: FIG. 17
Protocol: Peripheral blood (PB) was drawn from the facial vein without anaesthesia into K/EDTA anti-coagulated tubes (Sarstedt AG & Co, Nimbrecht, Germany). Cell counts (WBC) were determined using an automatic hemocytometer (Hemavet 950, Drew Scientific, Dallas, Tex.). Red blood cells were removed from 25 μL aliquots of blood using hypotonic lysis (Ammonium-Chloride-Potassium, ACK buffer, 5-10 min at RT). Samples were resuspended in staining buffer (PBS supplemented with 0.5% bovine serum albumin and 2 mM EDTA) and incubated for 30 min at 4° C. with pre-titrated saturating dilutions of the following fluorochrome-labeled monoclonal antibodies (BD Biosciences, San Jose, Calif.; clone designated in parenthesis): Sca1-PE (D7), CD117-BV421 (ACK2), lineage-APC (17A2, RB6-8C5, RA3-6B2, Ter-119, M/170) and CD45-A700 (30-F11). Dead cells were excluded from these assays by staining with 2 μg/mL 7-amino-actinomycin D (Molecular Probes, Eugene, Oreg.) for 5 min prior to analysis. Appropriate isotype-matched negative controls were used to assess background fluorescence intensity. Samples were analyzed on a Beckman Coulter Gallios flow cytometer and data were analyzed using FlowJo software (TreeStar, Ashland, Oreg.). Absolute numbers of immunophenotypically defined populations (e.g. LSK) were calculated by identifying CD45 positive cells as WBC from the corresponding cell count analysis. Statistical comparisons of flow cytometry data were performed using an unpaired two-tailed Student t-test (GraphPad Prism). P-values ≤0.05 were considered significant.

5TGMI myeloma cells = test: Flow cytometry cell-based assay: inhibition of soluble VCAM-1 binding to 5TGMI myeloma cells; conditions: FIG. 12
Protocol: as §1, with “(ALL) cells or 5TGMI myeloma” for “(ALL)”, “ALL or 5TGMI” for “ALL”

[2] = Table 12; inhibition of sVCAM-1 binding to human G2 ALL cells; read-out: sVCAM-1 IC50
[3] = Table 10; inhibition of sVCAM-1 binding to human G2 ALL cells; read-out: sVCAM-1 IC50
[4] = flow cytometry, FIG. 5, 8, 9, 12
[5] = Table 8; inhibition of sVCAM-1 binding to human G2 ALL cells; read-out: sVCAM-1 IC50
[6] = flow cytometry, FIG. 6, 7, 10, 11

- IC50 [1, 2]: 3.33 nM
Compound: CCOCc1cc(OC)c(-c2ccc(C[C@H](NC(=O)c3c(Cl)cccc3Cl)C(=O)O)cc2C(C)O)c(OC)c1 (stereo partly drawn) [Cmpd 12, (2S)-2-(2,6-dichlorobenzamido)-3-(4′-(ethoxymethyl)-2-(1-hydroxyethyl)-2′,6′-dimethoxy-[1,1′-biphenyl]-4-yl)propanoic acid]
- amount of CFU-C cells mobilized in combination with Groβt versus inhibitor alone (murine HSPCs): nearly doubled

- IC50 [1, 2]: 0.83 nM
Compound: CCOCc1cc(OC)c(-c2ccc(C[C@H](NC(=O)[C@@H]3CCCN3S(=O)(=O)c3ccccc3)C(=O)O)cc2)c(OC)c1 [Cmpd 35, (S)-3-(4′-(ethoxymethyl)-2′,6′-dimethoxy-[1,1′-biphenyl]-4-yl)-2-((S)-1-(phenylsulfonyl)pyrrolidine-2-carboxamido)propanoic acid]
- amount of CFU-C cells mobilized in combination with Groβt versus inhibitor alone (murine HSPCs): nearly doubled

- IC50 [1, 5]: 0.83 nM
Compound: CCOCc1cc(OC)c(-c2ccc(C[C@H](NC(=O)[C@@H]3CCCN3S(=O)(=O)c3ccccc3)C(=O)O)cc2)c(OC)c1 [Compound 1610, (S)-3-(4′-(ethoxymethyl)-2′,6′-dimethoxy-[1,1′-biphenyl]-4-yl)-2-((S)-1-(phenylsulfonyl)pyrrolidine-2-carboxamido)propanoic acid]
- inhibition of sVCAM-1 binding compared with Firategrast [1, 4]: significantly more potent than Firategrast
- LSK cell mobilization compared with firategrast (LSK cells): greater extent than firategrast
- inhibition of VCAM binding in 5TGMI cells compared with Firategrast / BIO5192 (5TGMI myeloma cells): even more potent than BIO5192

- IC50 [1, 5]: 3.33 nM
Compound: CCOCc1cc(OC)c(-c2ccc(C[C@H](NC(=O)c3c(Cl)cccc3Cl)C(=O)O)cc2C(C)O)c(OC)c1 (stereo partly drawn) [Compound 1633, (2S)-2-(2,6-dichlorobenzamido)-3-(4′-(ethoxymethyl)-2-(1-hydroxyethyl)-2′,6′-dimethoxy-[1,1′-biphenyl]-4-yl)propanoic acid]
- inhibition of sVCAM-1 binding compared with Firategrast [1, 4]: significantly more potent than Firategrast
- LSK cell mobilization compared with firategrast (LSK cells): greater extent than firategrast

The next lines start with the compound.

Compound: CCOCc1cc(OC)c(-c2ccc(C[C@H](NC(=O)[C@@H]3CCCN3S(=O)(=O)c3cc(Cl)cc(Cl)c3)C(=O)O)cc2)c(OC)c1 [Cmpd 36, (S)-2-((S)-1-((3,5-dichlorophenyl)sulfonyl)pyrrolidine-2-carboxamido)-3-(4′-(ethoxymethyl)-2′,6′-dimethoxy-[1,1′-biphenyl]-4-yl)propanoic acid]
- IC50 ([1]; read-out: sVCAM-1 IC50; Table 12; inhibition of sVCAM-1 binding to human G2 ALL cells): 0.49 nM
- amount of CFU-C cells mobilized in combination with Groβt versus inhibitor alone (murine HSPCs): nearly doubled

Compound: COc1cccc(OC)c1-c1ccc(C[C@H](NC(=O)[C@]2(C)CCCN2S(=O)(=O)c2cc(Cl)cc(Cl)c2)C(=O)O)cc1 [Compound 824]
- IC50 [1, 3]: 0.6 nM
- inhibition of sVCAM-1 binding compared with Firategrast [1, 4]: significantly more potent
- LSK cell mobilization compared with firategrast (LSK cells): greater extent than firategrast

Compound: COc1cc(CC(=O)N[C@@H](CC(C)C)c2cc(CCC(=O)O)on2)ccc1NC(=O)Nc1ccccc1C [Compound 842]
- IC50 [1, 3]: 0.4 nM
- inhibition of sVCAM-1 binding compared with Firategrast [1, 4]: significantly more potent
- LSK mobilization, VLA4 blockade combined with CXCR2 stimulation (LSK cells; DBA2/J mice, FIG. 15/29): mobilized
- CFU-C mobilization, VLA4 blockade combined with CXCR2 stimulation (murine HSPCs; DBA2/J mice, FIG. 15/29): mobilized

Compound: COCCOCc1cc(OC)c(-c2ccc(C[C@H](NC(=O)[C@@H]3CCN3S(=O)(=O)c3ccccc3)C(=O)O)cc2)c(OC)c1 [Compound 1745, (S)-3-(2′,6′-dimethoxy-4′-((2-methoxyethoxy)methyl)-[1,1′-biphenyl]-4-yl)-2-((S)-1-(phenylsulfonyl)azetidine-2-carboxamido)propanoic acid]
- IC50 [1, 5]: 3.7 nM

Compound: COCCOCc1cc(OC)c(-c2ccc(C[C@H](NC(=O)[C@@H]3CCN3S(=O)(=O)c3cc(Cl)cc(Cl)c3)C(=O)O)cc2)c(OC)c1 [Compound 1746, (S)-2-((S)-1-((3,5-dichlorophenyl)sulfonyl)azetidine-2-carboxamido)-3-(2′,6′-dimethoxy-4′-((2-methoxyethoxy)methyl)-[1,1′-biphenyl]-4-yl)propanoic acid]
- IC50 [1, 5]: 3.79 nM
- inhibition of sVCAM-1 binding compared with other inhibitors [1, 6]: inhibition was greatest

Compound: COCCOCc1cc(OC)c(-c2ccc(C[C@H](NC(=O)[C@@H]3CCCN3S(=O)(=O)c3ccc(C(=O)O)cc3)C(=O)O)cc2)c(OC)c1 [Compound 1747, 4-(((S)-2-(((S)-1-carboxy-2-(2′,6′-dimethoxy-4′-((2-methoxyethoxy)methyl)-[1,1′-biphenyl]-4-yl)ethyl)carbamoyl)pyrrolidin-1-yl)sulfonyl)benzoic acid]
- IC50 [1, 5]: 7.58 nM

Compound: COCCOCCOCCOCc1cc(OC)c(-c2ccc(C[C@H](NC(=O)[C@@H]3CCN3S(=O)(=O)c3ccccc3)C(=O)O)cc2)c(OC)c1 [Compound 2087, (S)-3-(4′-(2,5,8,11-tetraoxadodecyl)-2′,6′-dimethoxy-[1,1′-biphenyl]-4-yl)-2-((S)-1-(phenylsulfonyl)azetidine-2-carboxamido)propanoic acid]
- IC50 [1, 5]: 2.06 nM

Compound: COCCOCCOCCOCc1cc(OC)c(-c2ccc(C[C@H](NC(=O)[C@@H]3CCN3S(=O)(=O)c3cc(Cl)cc(Cl)c3)C(=O)O)cc2)c(OC)c1 [Compound 2088, (S)-3-(4′-(2,5,8,11-tetraoxadodecyl)-2′,6′-dimethoxy-[1,1′-biphenyl]-4-yl)-2-((S)-1-((3,5-dichlorophenyl)sulfonyl)azetidine-2-carboxamido)propanoic acid]
- IC50 [1, 5]: 0.7 nM
- inhibition of sVCAM-1 binding compared with other inhibitors [1, 6]: inhibition was greatest
